These results are taken from US10106833B2, “Methods and compounds for identifying glycosyltransferase inhibitors” (priority 2012, dated 2018).

Test [1] has as its target T1, E. coli PBP1b (Escherichia coli, UniProt P02919). The test is described as follows: Displacement of probe compound S16 (CMG121) from E. coli PBP1b, decrease in fluorescence polarization on addition of test compound. It is filed as binding. The protocol:
(§1) Solution containing 10 mM TRIS (pH=8.0), 100 mM NaCl, 0.3% DMSO, 75 nM S16, and bacterial glycosyltransferase (E. coli PBP1b c=2.2 uM; E. faecalis PBP2a c=5.1 uM; S. aureus SgtB c=2.1 uM) were allowed to equilibrate for 30 min at 0° C. and then serially diluted (1/1 dilutions) into buffer containing 10 mM TRIS (pH=8.0), 100 mM NaCl, 0.3% DMSO, and 75 nM S16. After equilibration at 0° C. for 30 min the 20 μL of the solutions were transferred to a black 384 well plate (Corning NBS Low Volume) and fluorescence polarization (FP, ex: 480 nm; em: 535 nm) was measured using a Perkin Elmer Envision microplate reader. Each series was performed in duplicate and the data was plotted FP vs. concentration of enzyme. For determination of the KD, the average FP values were converted to fluorescence anisotropy and fitted to the standard equation describing an equilibrium L+E<->LE (L=ligand; E=enzyme; LE=ligand enzyme complex) using GraphPad Prism 5.0 (GraphPad Software, Inc.; La Jolla, Calif., USA). The KD values for probe S16 are: E. coli PBP1b: 0.15; E. faecalis PBP2a: 0.38; […]
(§2) For determination of the Ki, the average FP values were first converted to fluorescence anisotropy.
(In general: Fluorescence polarisation rises when a labelled molecule tumbles more slowly, as on binding a larger partner.)

Test [2] deals with S. aureus SgtB (Staphylococcus aureus, UniProt Q99T05). The test is described as follows: Displacement of probe compound S16 (CMG121) from S. aureus SgtB, decrease in fluorescence polarization on addition of test compound. The conditions noted are these: read-out: S. aureus SgtB Kd; FIG. 2; FP displacement; 75 nM probe S16, 0.2-0.25 uM SgtB, 10 mM TRIS pH 8.0, 100 mM NaCl, 0° C. 30 min. It is filed as binding. On the procedure:
Solution containing 10 mM TRIS (pH=8.0), 100 mM NaCl, 0.3% DMSO, 75 nM S16, and bacterial glycosyltransferase (E. coli PBP1b c=2.2 uM; E. faecalis PBP2a c=5.1 uM; S. aureus SgtB c=2.1 uM) were allowed to equilibrate for 30 min at 0° C. and then serially diluted (1/1 dilutions) into buffer containing 10 mM TRIS (pH=8.0), 100 mM NaCl, 0.3% DMSO, and 75 nM S16. After equilibration at 0° C. for 30 min the 20 μL of the solutions were transferred to a black 384 well plate (Corning NBS Low Volume) and fluorescence polarization (FP, ex: 480 nm; em: 535 nm) was measured using a Perkin Elmer Envision microplate reader. Each series was performed in duplicate and the data was plotted FP vs. concentration of enzyme. For determination of the KD, the average FP values were converted to fluorescence anisotropy and fitted to the standard equation describing an equilibrium L+E<->LE (L=ligand; E=enzyme; LE=ligand enzyme complex) using GraphPad Prism 5.0 (GraphPad Software, Inc.; La Jolla, Calif., USA). The KD values for probe S16 are: E. coli PBP1b: 0.15; E. faecalis PBP2a: 0.38;
S. aureus SgtB: 0.18. Probe CMG121 (75 nM) is displaced from S. aureus SgtB (0.2 μM) by addition of either moenomycin or the weaker PGT inhibitor disaccharide S15, as evidenced by reduction of FP. […]
as §2

A further test deals with E. faecalis PBP2a (Enterococcus faecalis, UniProt Q837Z4). The test is described as follows: Displacement of probe compound S16 (CMG121) from E. faecalis PBP2a, decrease in fluorescence polarization on addition of test compound. The format is binding. The conditions noted are these: read-out: E. faecalis PBP2a Kd; FIG. 2; FP displacement; 75 nM probe S16, 0.38-0.46 uM PBP2a, 10 mM TRIS pH 8.0, 100 mM NaCl, 0° C. 30 min. The protocol: as §1, §2

In test [3] the target is S. aureus SgtB. The test is described as follows: Fluorescence polarization probe competition (Ki). The format is binding. The following applies: probe CMG121 75 nM, S. aureus SgtB 0.2 μM; read-out: Ki (displacement of probe CMG121). The protocol:
To equilibrated solutions containing 10 mM TRIS (pH=8.0), 100 mM NaCl, 75 nM S16, and bacterial glycosyltransferase (E. coli PBP1b c=0.1-0.15 uM; E. faecalis PBP2a c=0.38-0.46 uM; S. aureus SgtB c=0.2-0.25 uM) was added the test compound in DMSO or DMSO/H2O solutions (stock solutions were typically 2 mM) to obtain a final concentration of test compound of ca. 200 uM. These solutions were serially diluted (1/1 dilutions) into buffer containing 10 mM TRIS (pH=8.0), 100 mM NaCl, 75 nM Probe CMG121, and bacterial glycosyl transferase (E. coli PBP1b c=0.1-0.15 uM; E. faecalis PBP2a c=0.38-0.46 uM; S. aureus SgtB c=0.2-0.25 uM). After equilibration at 0° C. for 30 min the 20 μL of the solutions were transferred to a black 384 well plate (Corning NBS Low Volume) and fluorescence polarization (FP, ex: 480 nm; em: 535 nm) was measured using a Perkin Elmer Envision microplate reader. […]
A black 384 well plate (Corning NBS Low Volume No. 3820) was filled (10 μL per well) with an equilibrated solution containing 10 mM TRIS (pH=8.0), 100 mM NaCl, 75 nM disaccharide S15, and 1.0-1.5 μM S. aureus SgtB (depending on protein batch). […] The plate was incubated at 4° C. for 30 min and read with an Perkin Elmer EnVision microplate reader as described above. […]
For determination of the Ki, the average FP values were first converted to fluorescence anisotropy. […]

Test [4] has as its target T1, E. coli PBP1b. The test is described as follows: In vitro PGT inhibition, PG formation from 14C-lipid II. The format is biochemical. The conditions noted are these: E. coli PBP1b 50 nM, lipid II 4 μM. On the procedure:
(§3) A solutions of S. aureus SgtB (50 nM) in 12.5 mM HEPES (pH=7.5), 2 mM MnCl2, and 250 μM tween-80 (8 μL) were incubated with DMSO solutions containing the inhibitor of interest in different concentrations (1 μL) for 20 min. Then ^14C-labelled lipid II (1 μL, 40 μM, ^14C/^12C 1/3) was added and the polymerization reaction was allowed to proceed for 25 min at room temperature. The reaction was quenched with 10 μL of a solution of moenomycin (1 μM) in 10% triton-X reduced and the remaining lipid II was separated from peptidoglycan (PG) using paper strip chromatography (isobutyric acid/1M NH4OH 5/3). Using a scintillation counter the ratio of radioactivity in PG to total radioactivity was determined and plotted vs. inhibitor concentration. IC50s were determined using the curve fitting program GraphPad Prism 5.0 (GraphPad Software, Inc.; La Jolla, Calif., USA).
Solutions of the PGT (50 nM) in 50 mM HEPES (pH=7.5), 10 mM CaCl2, and […] PenG (8 μL) were incubated with DMSO solutions containing the inhibitor of interest in different concentrations (1 μL) for 20 min. Then ^14C-labelled lipid II (1 μL, 40 μM, ^14C/^12C 1/3) was added and the polymerization reaction was allowed to proceed for 25 min at room temperature. The reaction was quenched and processed as described above.

Test [5] concerns the target T2, S. aureus SgtB (Staphylococcus aureus, UniProt Q93Q23).
T2 sequence (Q93Q23 1-269): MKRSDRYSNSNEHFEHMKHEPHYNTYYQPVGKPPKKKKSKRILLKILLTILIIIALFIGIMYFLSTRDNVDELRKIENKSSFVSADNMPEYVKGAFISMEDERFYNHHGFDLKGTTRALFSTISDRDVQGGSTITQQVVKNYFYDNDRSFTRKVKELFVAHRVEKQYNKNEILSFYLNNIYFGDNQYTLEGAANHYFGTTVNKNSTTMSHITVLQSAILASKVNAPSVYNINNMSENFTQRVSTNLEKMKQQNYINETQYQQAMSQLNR
The test is described as above. It is filed as biochemical. The following applies: S. aureus SgtB 50 nM, lipid II 4 μM. On the procedure:
as §3

In a further test the test system is Gram-positive organisms. The conditions noted are these: against Gram-positive organisms; cited from earlier work.
The subject of test [6] is bacterial glycosyltransferase (E. coli PBP1b; E. faecalis PBP2a; S. aureus SgtB). The test can be described thus: Assay validation: displacement of probe compound from enzyme (fluorescence polarization). It is filed as binding. The following applies: 75 nM probe S16; test compound up to ca. 200 uM. The protocol: To equilibrated solutions containing 10 mM TRIS (pH=8.0), 100 mM NaCl, 75 nM S16, and bacterial glycosyltransferase (E. coli PBP1b c=0.1-0.15 uM; E. faecalis PBP2a c=0.38-0.46 uM; S. aureus SgtB c=0.2-0.25 uM) was added the test compound in DMSO or DMSO/H2O solutions (stock solutions were typically 2 mM) to obtain a final concentration of test compound of ca. 200 uM. These solutions were serially diluted (1/1 dilutions) into buffer containing 10 mM TRIS (pH=8.0), 100 mM NaCl, 75 nM Probe CMG121, and bacterial glycosyl transferase (E. coli PBP1b c=0.1-0.15 uM; E. faecalis PBP2a c=0.38-0.46 uM; S. aureus SgtB c=0.2-0.25 uM). After equilibration at 0° C. for 30 min the 20 μL of the solutions were transferred to a black 384 well plate (Corning NBS Low Volume) and fluorescence polarization (FP, ex: 480 nm; em: 535 nm) was measured using a Perkin Elmer Envision microplate reader. Each series was performed in duplicate and the data was plotted FP vs. concentration of test compound.

T1 sequence (P02919 whole entry): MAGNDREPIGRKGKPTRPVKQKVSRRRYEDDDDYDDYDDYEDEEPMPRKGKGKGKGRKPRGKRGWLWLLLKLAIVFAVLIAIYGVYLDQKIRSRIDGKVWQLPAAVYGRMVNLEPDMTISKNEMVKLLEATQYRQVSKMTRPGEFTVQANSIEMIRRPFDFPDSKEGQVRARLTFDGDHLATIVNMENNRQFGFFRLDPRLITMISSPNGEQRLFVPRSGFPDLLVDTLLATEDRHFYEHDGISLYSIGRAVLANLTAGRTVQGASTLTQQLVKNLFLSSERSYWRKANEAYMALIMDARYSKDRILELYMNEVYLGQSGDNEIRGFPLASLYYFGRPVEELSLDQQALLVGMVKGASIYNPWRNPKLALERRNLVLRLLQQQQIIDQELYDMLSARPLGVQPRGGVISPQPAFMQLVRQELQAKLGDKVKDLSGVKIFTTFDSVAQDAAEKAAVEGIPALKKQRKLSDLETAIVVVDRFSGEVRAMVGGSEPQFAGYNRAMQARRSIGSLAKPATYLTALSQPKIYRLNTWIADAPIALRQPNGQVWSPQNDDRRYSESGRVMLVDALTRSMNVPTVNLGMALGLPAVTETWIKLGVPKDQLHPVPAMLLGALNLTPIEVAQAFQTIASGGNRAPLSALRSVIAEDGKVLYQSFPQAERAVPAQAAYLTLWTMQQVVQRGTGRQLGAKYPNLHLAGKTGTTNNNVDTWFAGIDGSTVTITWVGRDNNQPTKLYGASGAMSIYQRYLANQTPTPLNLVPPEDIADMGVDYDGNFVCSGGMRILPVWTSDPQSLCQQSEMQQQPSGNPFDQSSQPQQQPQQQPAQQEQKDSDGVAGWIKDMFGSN
Sequence of E. faecalis PBP2a (Q837Z4 entry or part of it): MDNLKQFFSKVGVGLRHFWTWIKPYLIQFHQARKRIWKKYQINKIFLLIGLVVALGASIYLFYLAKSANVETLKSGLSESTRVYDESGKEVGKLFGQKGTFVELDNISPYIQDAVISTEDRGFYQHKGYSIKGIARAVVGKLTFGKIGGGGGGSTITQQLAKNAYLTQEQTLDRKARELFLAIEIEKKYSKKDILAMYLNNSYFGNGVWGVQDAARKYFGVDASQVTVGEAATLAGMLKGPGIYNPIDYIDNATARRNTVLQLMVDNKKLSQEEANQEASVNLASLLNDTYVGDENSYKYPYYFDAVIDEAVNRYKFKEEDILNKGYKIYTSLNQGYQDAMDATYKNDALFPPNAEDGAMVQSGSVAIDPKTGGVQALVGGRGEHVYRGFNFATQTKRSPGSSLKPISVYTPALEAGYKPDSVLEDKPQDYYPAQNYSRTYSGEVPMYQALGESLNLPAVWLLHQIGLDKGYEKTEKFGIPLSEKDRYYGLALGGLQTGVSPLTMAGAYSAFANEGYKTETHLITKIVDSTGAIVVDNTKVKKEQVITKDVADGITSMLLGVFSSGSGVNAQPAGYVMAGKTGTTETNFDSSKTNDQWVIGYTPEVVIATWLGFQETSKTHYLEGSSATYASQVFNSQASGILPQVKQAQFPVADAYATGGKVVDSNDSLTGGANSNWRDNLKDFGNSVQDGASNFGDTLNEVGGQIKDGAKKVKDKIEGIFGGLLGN

The term Kd denotes the concentration at which binding is half-saturated. In the case of `C=C(C/C=C(\C)CCC=C(C)C)CCC(C)(C)/C=C/CC/C(C)=C\CO[C@H](COP(=O)(O)O[C@H]1O[C@H](C(N)=O)[C@@](C)(O)[C@H](OC(N)=O)[C@H]1O[C@@H]1O[C@H](CO[C@@H]2O[C@H](CO)[C@@H](O)[C@H](O)[C@H]2O)[C@@H](O[C@@H]2O[C@H](C)[C@@H](O[C@@H]3O[C@H](C(=O)NC4=C(O)CCC4=O)[C@H](O)[C@H](O)[C@H]3O)[C@H](O)[C@H]2NC(C)=O)[C@H](O)[C@H]1NC(C)=O)C(=O)O` [Moenomycin A], the Kd at E. coli PBP1b [1] (read-out: E. coli PBP1b Kd, FIG. 2, FP displacement, 75 nM probe S16, 0.1-0.15 uM PBP1b, 10 mM TRIS pH 8.0, 100 mM NaCl, 0° C. 30 min) stood at 3900 nM; at S. aureus SgtB [2] it was 1100 nM; at E. faecalis PBP2a, 950 nM.
For orientation: Ki means a dissociation constant, usually derived from enzyme kinetics or from competition with a known ligand. By IC50 is commonly meant the concentration needed to halve the response being measured. For the molecule `C=C(C/C=C(\C)CCC=C(C)C)CCC(C)(C)/C=C/CC/C(C)=C\CO[C@H](COP(=O)(O)O[C@H]1O[C@H](C(N)=O)[C@@](C)(O)[C@H](OC(N)=O)[C@H]1O[C@@H]1O[C@H](CO[C@@H]2O[C@H](CO)[C@@H](O)[C@H](O)[C@H]2O)[C@@H](O[C@@H]2O[C@H](C)[C@@H](O[C@@H]3O[C@H](C(=O)NC4=C(O)CCC4=O)[C@H](O)[C@H](O)[C@H]3O)[C@H](O)[C@H]2NC(C)=O)[C@H](O)[C@H]1NC(C)=O)C(=O)O` [moenomycin A], on S. aureus SgtB [3], the inhibitory constant (Ki) came out at 640 nM. The IC50 was 12 nM against E. coli PBP1b [4] and 6 nM at S. aureus SgtB [5]. In the test with Gram-positive organisms, the “Potency relative to vancomycin” value is listed as 10-1000 times. Also, the “Displacement of the probe compound (change in fluorescence polarization) on addition of test compound” value in test [6] is on record as “decrease in fluorescence polarization”.
`CCCCCCCCCCCCO[C@@H]1O[C@H](CO)[C@@H](O[C@H]2O[C@H](CO)[C@@H](O)[C@H](O)[C@H]2O)[C@H](O)[C@H]1O` [dodecyl-β-D-maltoside]: the “Displacement of the probe compound (change in fluorescence polarization) on addition of test compound” value in test [6] is “does not displace”.
Regarding `CCCCCCCCCCCCCC(=O)OC[C@H](COP(=O)(O)OCC(O)COP(=O)(O)OC[C@@H](COC(=O)CCCCCCCCCCCCC)OC(=O)CCCCCCCCCCCCC)OC(=O)CCCCCCCCCCCCC` (stereo partly drawn) [tetramystryl cardiolipin], the “Displacement of the probe compound (change in fluorescence polarization) on addition of test compound” value in test [6] was “partial displacement”.
Regarding `CC(=O)N[C@H]1[C@H](O[C@H]2[C@H](O)[C@@H](NC(C)=O)[C@H](O[C@H]3[C@@H](OP(=O)(O)OC[C@@H](OC/C=C(/C)CCC=C(C)C)C(=O)O)O[C@H](C(N)=O)[C@@](C)(O)[C@@H]3OC(N)=O)O[C@@H]2CO[C@@H]2O[C@H](CO)[C@@H](O)[C@H](O)[C@H]2O)O[C@H](C)[C@@H](O[C@@H]2O[C@H](C(=O)NC3=C(O)CCC3=O)[C@H](O)[C@H](O)[C@H]2O)[C@@H]1O` [neryl-Moenomycin A (n-MmA), neryl-moenomycin A], the IC50 on E. coli PBP1b [1] (FIG. 6, printed on the figure showing FP displacement of the probe by neryl-moenomycin A) came to 200 nM.
Regarding nC20-moenomycin A, the “Displacement of the probe compound (change in fluorescence polarization) on addition of test compound” value in test [6] was “decrease in fluorescence polarization”.
Same read-out and setting: the same measure for ZE-farnesyl-moenomycin A: “decrease in fluorescence polarization”.
Still for that read-out and setting: then `CC(=O)N[C@H]1[C@H](O[C@H]2[C@H](O)[C@@H](NC(C)=O)[C@H](O[C@H]3[C@@H](OP(=O)(O)OC[C@@H](OC/C=C(/C)CCC=C(C)C)C(=O)O)O[C@H](C(N)=O)[C@@](C)(O)[C@@H]3OC(N)=O)O[C@@H]2CO[C@@H]2O[C@H](CO)[C@@H](O)[C@H](O)[C@H]2O)O[C@H](C)[C@@H](O[C@@H]2O[C@H](C(=O)NC3=C(O)CCC3=O)[C@H](O)[C@H](O)[C@H]2O)[C@@H]1O` [neryl-moenomycin A], with “decrease in fluorescence polarization”; and nC12-moenomycin A, with “decrease in fluorescence polarization”.
